{"source": "patent US9814787B2", "about": "“Luciferin amides” (University of Massachusetts, priority 2013, dated 2017)", "key": {"[1]": {"system": "FVB mice expressing luciferase in brain tissue", "assay": "In vivo bioluminescence imaging in brains of FVB mice injected with AAV9-luc+ in the striatum", "conditions": "doses 200-fold and 1000-fold lower than standard D-luciferin dose", "protocol": "FVB mice were injected with AAV9-luc+ in the brain striatum. Bioluminescence assays were performed approximately nine months after AAV injection. Each luciferin amide was diluted into PBS to the indicated concentration from a 50 mM DMSO stock solution and filtered (0.22 μm) prior to intraperitoneally injection (0.1 mL per mouse). Mice were anesthetized with isoflurane (2% in 1 L/min oxygen) and images acquired on a Xenogen IVIS 100 imaging system and analyzed with Living Image software.\nCertain luciferin amides described herein were tested to determine whether they would image well in live mice. For these studies, FVB mice were injected with adeno-associated virus 9 (AAV9)-luciferase constructs into the brain striatum.\nBioluminescence imaging (BLI) in the brain is more challenging than imaging in the rest of the organism, in part because a luciferase substrate (i.e., a luciferin) must cross the blood-brain barrier. Therefore, the ability of a synthetic luciferin (i.e., Compound 9's corresponding luciferin (CycLuc1)) to allow bioluminescence imaging in these mice, as compared to the native firefly luciferase substrate (i.e., D-luciferin) was first tested. Specifically, each substrate was injected intraperitoneally (IP) in PBS at a volume of 0.1 mL, D-luciferin being at a concentration of 100 mM and CycLuc1 being at a concentration of 5 mM. […] CycLuc1 was then injected at a 320-fold lower dose (0.06 mL of 0.5 mM) than D-luciferin.\nSpecifically, Compound 9 (i.e., CycLuc1 amide) was injected at 0.5 mM in 0.5% DMSO/PBS (0.06 mL).\nIn this figure, mice in the top row were treated with luciferin amides in the amounts indicated in the figure, and the mice in the bottom row were the same mice that were imaged one day later using a standard dose of D-luciferin."}, "[2]": {"system": "live CHO cells expressing R218K luciferase", "assay": "Intact cell FAAH assay, light emission from live CHO cells expressing R218K luciferase", "format": "cell-based, Chinese hamster", "protocol": "(§1) Chinese hamster ovary-K1 (CHO-K1) cells were grown in a CO2 incubator at 37° C. with 5% CO2 and were cultured in F-12K Nutrient Mixture (GIBCO) supplemented with 10% fetal bovine serum and 100 U/mL penicillin/streptomycin.\n(§2) Wild-type and R218K mutant luciferases were cloned into the BamHI-NotI site of pCDNA 3.1 and transiently transfected into CHO-K1 cells with Lipofectamine 2000 in 96-well tissue culture-treated plates for intact cell assays, or 6-well plates for lysed cell assays. For intact cells, 0.075 μg plasmid/well was transfected; for lysed cells, 2.25 μg plasmid/well was transfected.\n[…] The cells were incubated for one hour in the CO2 incubator at 37° C. Cells were then washed with Hank's balanced salt solution (HBSS) and overlaid with 60 μL a luciferin amide substrate in HBSS. Imaging assays were performed 3 minutes after substrate addition, with final substrate concentrations ranging from 0.122 to 250 μM.\nSeven luciferin amides, i.e., Compounds 1-4, 9, 10, and 25, were tested in live CHO cells expressing R218K luciferase at various concentrations (i.e., 0.12 μM, 0.25 μM, 0.5 μM, 1 μM, 2 μM, 4 μM, 8 μM, 16 μM, 31 μM, 62 μM, 125 μM, and 250 μM).\n(§3) Compound 25 and Compound 10, as well as their corresponding luciferins (i.e., D-Luciferin and CycLuc2, respectively), were tested in live CHO cells expressing wild-type (WT) luciferase or R218K (RK) luciferase at various concentrations (i.e., 0.125 μM, 0.25 μM, 0.5 μM, 1 μM, 2 μM, 4 μM, 8 μM, 16 μM, 31 μM, 62 μM, 125 μM, and 250 μM)."}, "FAAH": {"molecular_target": "T1, FAAH (Homo sapiens, UniProt O00519)", "T1 construct": "purchased Cayman Chemical", "T1 sequence (O00519 1-579)": "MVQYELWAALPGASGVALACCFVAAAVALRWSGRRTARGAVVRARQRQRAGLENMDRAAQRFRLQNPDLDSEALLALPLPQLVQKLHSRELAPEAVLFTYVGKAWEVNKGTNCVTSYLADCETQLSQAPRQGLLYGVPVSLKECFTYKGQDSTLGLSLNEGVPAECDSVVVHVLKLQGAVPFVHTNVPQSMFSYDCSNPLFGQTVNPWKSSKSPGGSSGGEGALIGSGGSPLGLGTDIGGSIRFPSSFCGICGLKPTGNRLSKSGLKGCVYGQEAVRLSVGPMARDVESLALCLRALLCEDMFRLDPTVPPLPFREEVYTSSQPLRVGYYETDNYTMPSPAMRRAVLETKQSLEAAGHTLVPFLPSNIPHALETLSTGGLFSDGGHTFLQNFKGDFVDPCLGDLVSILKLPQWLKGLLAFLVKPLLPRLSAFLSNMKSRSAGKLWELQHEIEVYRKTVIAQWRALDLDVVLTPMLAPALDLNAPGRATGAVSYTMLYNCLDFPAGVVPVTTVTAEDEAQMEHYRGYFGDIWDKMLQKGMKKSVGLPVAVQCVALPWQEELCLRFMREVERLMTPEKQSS", "assay": "In vitro FAAH assay: luciferin amide treated with recombinant FAAH, then R218K luciferase, bioluminescence", "format": "biochemical", "conditions": "50 μM luciferin amide, 10 minutes at room temperature, R218K luciferase 3 μg/mL", "protocol": "Recombinant FAAH, FAAH assay buffer, and FAAH inhibitors URB-597, PF-750, and PF-3845 were purchased from Cayman Chemical.\nBioluminescence assays were performed in either a Turner Veritas luminometer or a Xenogen IVIS-100 imaging system. For Veritas experiments, white 96-well plates were used (Costar 3912). For IVIS experiments, black 96-well plates were used (Costar 3915).\nLuciferin amides (50 μM) were treated with FAAH and FAAH buffer (Cayman Chemical) in the presence or absence of 50 μM FAAH inhibitor URB-597 or 50 μM luciferase inhibitor 2-(4′-methoxyphenyl)benzothiazole. After 10 minutes at room temperature, R218K mutant firefly luciferase was added at a concentration of 3 μg/mL and bioluminescence was detected on a Turner Veritas luminometer.\nFour luciferin amides (50 μM), i.e., Compounds 1, 9, 10, and 25, were treated with a buffer alone, a buffer containing FAAH, a buffer containing FAAH+50 μM URB-597 (i.e., a FAAH inhibitor), or a buffer containing FAAH+50 μM luciferase inhibitor 2-(4′-methoxyphenyl)benzothiazole. After 10 minutes at room temperature, R218K luciferase was added at a concentration of 3 μg/mL and bioluminescence was detected on a Turner Veritas.\nThree luciferin amides (50 μM), i.e., Compounds 2, 9, and 25, were treated with a buffer alone, a buffer containing FAAH, a buffer containing FAAH 1:10 (i.e., a ten-fold dilution of FAAH), a buffer containing pig liver esterase (PLE), or a buffer containing PLE 1:10 (i.e., a ten-fold dilution of PLE). After one hour at room temperature, R218K luciferase was added at a concentration of 3 μg/mL and bioluminescence was detected on a Turner Veritas."}, "[3]": {"system": "live CHO cells expressing wild-type (WT) luciferase", "assay": "Intact cell FAAH assay, light emission from live CHO cells expressing wild-type luciferase", "format": "cell-based, Chinese hamster", "conditions": "all concentration levels", "protocol": "as §1, §2\nMedium was removed from transfected CHO cells and replaced with 60 μL Optimem with or without a FAAH inhibitor (10 μM). The cells were incubated for one hour in the CO2 incubator at 37° C. Cells were then washed with Hank's balanced salt solution (HBSS) and overlaid with 60 μL a luciferin amide substrate in HBSS. Imaging assays were performed 3 minutes after substrate addition, with final substrate concentrations ranging from 0.122 to 250 μM.\nas §3"}}, "note": "Entries after “also recorded” stand apart in the source; their conditions may differ."}
{"smiles": "CN1CCc2cc3nc(C4=N[C@@H](C(N)=O)CS4)sc3cc21", "note": "[Compound 10, (S)-4,5-dihydro-2-(6,7-dihydro-5-methyl-5H-thiazolo[4,5-f]indol-2-yl)thiazole-4-carboxamide]", "values": [{"measurement": "bioluminescence signal higher than standard D-luciferin imaging conditions", "setting": "[1]", "value": 10, "unit": "fold"}, {"measurement": "effect of FAAH inhibitors URB-597, PF-750 and PF-3845 on light output", "setting": "[2]; 50 μM FAAH inhibitor", "value": "complete inhibition"}, {"measurement": "light emission relative to the corresponding luciferin (CycLuc2)", "setting": "[2]; all concentrations tested, 0.12 to 250 μM", "value": "greater light emission than its corresponding luciferin; also recorded: greater light output than cells treated with Compound 10's corresponding luciferin"}, {"measurement": "light output relative to other substrate-luciferase combinations", "setting": "[2]; concentrations above 30 μM", "value": "only exceeded by cells expressing the wild-type luciferase and treated with D-luciferin"}, {"measurement": "light emission relative to other substrate-luciferase combinations", "setting": "[2]; substrate concentrations below 30 μM", "value": "higher light emission than all other substrate-luciferase combinations"}, {"measurement": "increase in bioluminescence signal on addition of FAAH versus buffer", "setting": "FAAH", "value": 139, "unit": "fold"}, {"measurement": "light output relative to the corresponding luciferin (CycLuc2)", "setting": "[3]", "value": "greater light output than cells treated with Compound 10's corresponding luciferin"}]}
